For test [1], the system named is PMMoV. Kind of test: Antiviral activity assay against PMMoV, curative activity. Format: in vivo, Pepper mild mottle virus (PMMoV). Also on record: Curative activity: concentration or dose not given beside the values. The note with it: for EC50: Pepper mild mottle virus, read-out: EC50 of curative activity. Here is the method:
(§1) Virions were isolated and extracted from leaves of N. benthamiana infected with PMMoV referring to the method recorded in the literature. And the inhibiting activities of C1–C38 against PMMoV were assessed with reference to the literature as well [26, 34].

Test [2] relates to PMMoV. Nature of the test: Antiviral activity assay against PMMoV, protective activity. Also on record: Protective activity: concentration or dose not given beside the values. The note with it: for EC50: Pepper mild mottle virus, read-out: EC50 of protective activity. Format: in vivo, Pepper mild mottle virus (PMMoV). Here is the method: as §1
The test system of test [3] is PMMoV. Nature of the test: Antiviral activity assay against PMMoV, inactivating activity. Format: in vivo, Pepper mild mottle virus (PMMoV). Conditions: Pepper mild mottle virus; for pest or weed control at 500 µg/mL: read-out: Inactivating activity; for EC50: read-out: EC50 of inactivating activity. Here is the method: as §1
Test [4] deals with PMMoV CP (Octet, in vitro) (pepper mild mottle virus). Nature of the test: BLI; Octet, in vitro; which partner was immobilised is not stated. A general note: In BLI a coated tip is dipped into the sample, and binding shifts an interference pattern.
The mark [5] stands for this setting: against PMMoV, average of three replicates, ± standard deviation.
Setting [6] is: against PMMoV, at 500 µg/mL, average of three replicates, ± standard deviation.

Converted amounts (≈) assume the structure as drawn. Read-outs that look alike come from different tables or passages of the source.

The term EC50 denotes the concentration at which the effect is half-maximal. With `CC(=O)OCC1OC(n2cnc3c(N4CCOCC4)nc(Cl)nc32)C(NS(=O)(=O)c2ccc(F)cc2)C(OC(C)=O)C1OC(C)=O` (stereo not shown) [C32], in the test on PMMoV [1] (setting [5]), the EC50 came to 23.8 ± 5.5 µg/mL (≈ 34.7 µM) and the Curative activity was found to be 68.0 ± 2.7%. For the same compound, in the test with PMMoV [2] (setting [5]), the half-maximal effective concentration (EC50) is 28.7 ± 4.4 µg/mL (≈ 41.9 µM) and the Protective activity was 68.9 ± 2.0%. For the same compound, the pest or weed control at 500 µg/mL in the test with PMMoV [3] (setting [6]) was 67.9 ± 5.1%. The EC50 in the test on PMMoV [3] (setting [5]) was 38 ± 4.4 µg/mL (≈ 55.5 µM).
In the case of `CC(=O)OCC1OC(n2cnc3c(N4CCOCC4)ncnc32)C(NS(=O)(=O)c2ccc(OC(F)(F)F)cc2)C(OC(C)=O)C1OC(C)=O` (stereo not shown) [C33], in the test on PMMoV [1] (setting [5]), the EC50 came to 32 ± 1 µg/mL (≈ 44.7 µM) and the Curative activity stood at 71.5 ± 4.4%. Further, in the test with PMMoV [2] (setting [5]), the EC50 was found to be 305 ± 12.2 µg/mL (≈ 426 µM) and the Protective activity was found to be 53.0 ± 3.7%. Further, in the test on PMMoV [3] (setting [6]), the pest or weed control at 500 µg/mL stood at 54.4 ± 3.3%. The EC50 with PMMoV [3] (setting [5]) was determined as 176 ± 11.3 µg/mL (≈ 246 µM).
As to `CC(=O)OCC1OC(n2cnc3c(N4CCOCC4)nc(F)nc32)C(NS(=O)(=O)c2ccc(OC(F)(F)F)cc2)C(OC(C)=O)C1OC(C)=O` (stereo not shown) [C34], in the test on PMMoV [1] (setting [5]), the EC50 is 33.8 ± 4.6 µg/mL (≈ 46 µM) and the Curative activity amounted to 67.4 ± 2.0%. Also, in the test with PMMoV [2] (setting [5]), the EC50 was found to be 53.8 ± 4.8 µg/mL (≈ 73.2 µM) and the Protective activity worked out at 65.6 ± 4.5%. In addition, the pest or weed control at 500 µg/mL in the test with PMMoV [3] (setting [6]) is 72.7 ± 2%. Further, in the test on PMMoV [3] (setting [5]), the EC50 turned out to be 53 ± 2.2 µg/mL (≈ 72.1 µM).
Regarding `CC(=O)OCC1OC(n2cnc3c(N4CCOCC4)ncnc32)C(NS(=O)(=O)c2cccc(OC(F)(F)F)c2)C(OC(C)=O)C1OC(C)=O` (stereo not shown) [C35], the EC50 in the test with PMMoV [1] (setting [5]) came out at 17 ± 1.4 µg/mL (≈ 23.7 µM); in the test with PMMoV [2] (setting [5]), 33.9 ± 0.5 µg/mL (≈ 47.3 µM); in the test with PMMoV [3] (setting [5]) it was 457 ± 10.2 µg/mL (≈ 638 µM). In the test with PMMoV [1] (setting [5]), this compound returned a Curative activity of 67.9 ± 3.3%. Besides, in the test with PMMoV [2] (setting [5]), the Protective activity is 68.9 ± 2.0%. Moreover, in the test with PMMoV [3] (setting [6]), the pest or weed control at 500 µg/mL is 49.1 ± 1.6%.
`Cc1ccc(S(=O)(=O)NC2C(O)C(O)C(CO)OC2n2cnc3c(N4CCOCC4)nc(Cl)nc32)cc1` (stereo not shown) [C36]: the concentration giving a half-maximal response (EC50) with PMMoV [1] (setting [5]) stood at 283 ± 10.5 µg/mL (≈ 510 µM); with PMMoV [2] (setting [5]) it was 562 ± 11.1 µg/mL (≈ 1010 µM); in the test with PMMoV [3] (setting [5]), 313 ± 7.1 µg/mL (≈ 564 µM). In the test on PMMoV [1] (setting [5]), the Curative activity was found to be 57.3 ± 1.1%. The compound further came in with a Protective activity with PMMoV [2] (setting [5]) of 52.2 ± 0.8%. Also, the pest or weed control at 500 µg/mL with PMMoV [3] (setting [6]) came to 50.6 ± 3.6%.
As for `O=[N+]([O-])c1ccc(S(=O)(=O)NC2C(O)C(O)C(CO)OC2n2cnc3c(N4CCOCC4)ncnc32)cc1` (stereo not shown) [C37], the EC50 worked out at 2000 ± 21.8 µg/mL (≈ 3620 µM) in the test on PMMoV [1] (setting [5]), 344 ± 15.8 µg/mL (≈ 623 µM) with PMMoV [2] (setting [5]) and 280 ± 13.9 µg/mL (≈ 507 µM) in the test on PMMoV [3] (setting [5]). In addition, the Curative activity in the test with PMMoV [1] (setting [5]) stood at 36.2 ± 4.6%. The same compound returned a Protective activity with PMMoV [2] (setting [5]) of 50.6 ± 2.1%. The pest or weed control at 500 µg/mL in the test with PMMoV [3] (setting [6]) stood at 57.8 ± 3.4%.
On to `O=S(=O)(NC1C(O)C(O)C(CO)OC1n1cnc2c(N3CCOCC3)nc(F)nc21)c1ccc(OC(F)(F)F)cc1` (stereo not shown) [C38], for which, in the test on PMMoV [1] (setting [5]), the EC50 was 442 ± 12.6 µg/mL (≈ 726 µM) and the Curative activity is on record as 51.54 ± 0.3%. Also, in the test on PMMoV [2] (setting [5]), the 50% effective concentration (EC50) was determined as 474 ± 27.7 µg/mL (≈ 779 µM) and the Protective activity came out at 46.5 ± 1.0%. Further, in the test with PMMoV [3] (setting [6]), the pest or weed control at 500 µg/mL came to 51.6 ± 0.5%. Moreover, in the test on PMMoV [3] (setting [5]), the EC50 is 421 ± 7.4 µg/mL (≈ 692 µM).
Regarding `CNCC(=O)N[C@@H](CO)C(=O)N[C@H]1[C@H](O)[C@@H](O)[C@H](n2ccc(N)nc2=O)O[C@@H]1C(N)=O` [Ningnanmycin, reference compound], the EC50 with PMMoV [1] came to 258 ± 7.6 µg/mL (≈ 581 µM); in the test on PMMoV [2], 285 ± 5.3 µg/mL (≈ 644 µM); in the test on PMMoV [3], 67.3 ± 3.5 µg/mL (≈ 152 µM). The compound further showed a Curative activity in the test on PMMoV [1] (setting [5]) of 54.5 ± 3.3%. This compound registered a Protective activity in the test with PMMoV [2] (setting [5]) of 60.8 ± 3.1%. In the test on PMMoV [3], the pest or weed control at 500 µg/mL amounted to 71.2 ± 6.1%.
A word on the Kd: it is the constant that tells how readily two partners part at equilibrium. The compound “I3QHX5 (Octet, in vitro) (from UniProt I3QHX5 1-485) (natural protein)” came in with a Kd in test [4] of 13 nM.

For the origin of these results see publication PMC12957839, “Antiviral activity and mechanism of purine morpholine nucleoside analogues incorporating a sulfonamide fragment” (Journal of Advanced Research, 2025).
